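48-hour exposure; five concentrations; linearly interpolated endpoints. Here, GI50 denotes the concentration required for 50% inhibition of growth.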 Active and inactive are the calls of the source. Cut-off read from the data, not from the text of the source: active = GI50 up to about 1.1 µM and inactive = higher.
Experiments:
Assay in all cases: inhibition of tumour cell growth, NCI panel, 48 h
MOLT-4 = test system: MOLT-4
LOX IMVI = test system: LOX IMVI
NCI-H226 = test system: NCI-H226
Malme-3M = test system: Malme-3M
A549 = test system: A549
TK-10 = test system: TK-10
SF-295 = test system: SF-295
OVCAR-5 = test system: OVCAR-5
NCI-H522 = test system: NCI-H522
UO-31 = test system: UO-31
UACC-257 = test system: UACC-257
OVCAR-8 = test system: OVCAR-8
HCT-116 = test system: HCT-116
SR = test system: SR
ACHN = test system: ACHN
IGROV-1 = test system: IGROV-1
OVCAR-3 = test system: OVCAR-3
UACC-62 = test system: UACC-62
MDA-MB-435 = test system: MDA-MB-435
SNB-19 = test system: SNB-19

O=S(=O)(c1ccccc1)n1cnc(CCc2ccccc2)n1
GI50 (MOLT-4): > 100 µM (inactive)
GI50 (LOX IMVI): > 100 µM (inactive)
GI50 (NCI-H226): > 100 µM (inactive)
GI50 (Malme-3M): > 100 µM (inactive)
GI50 (A549): > 100 µM (inactive)
GI50 (TK-10): > 100 µM (inactive)
GI50 (SF-295): > 100 µM (inactive)
GI50 (OVCAR-5): > 100 µM (inactive)
GI50 (NCI-H522): > 100 µM (inactive)
GI50 (UO-31): > 100 µM (inactive)
GI50 (UACC-257): > 100 µM (inactive)
GI50 (OVCAR-8): > 100 µM (inactive)
GI50 (HCT-116): > 100 µM (inactive)
GI50 (SR): > 100 µM (inactive)
GI50 (ACHN): > 100 µM (inactive)
GI50 (IGROV-1): > 100 µM (inactive)
GI50 (OVCAR-3): > 100 µM (inactive)
GI50 (UACC-62): > 100 µM (inactive)

COc1cc2c(cc1O)CCN[C@@]21CS[C@H]2c3c(OC(C)=O)c(C)c4c(c3C(COC1=O)N1C2C2NC(Cc3cc(C)c(OC)c(O)c32)[C@@H]1O)OCO4 (stereo not given in full)
GI50 (A549): < 0.01 µM (active)
GI50 (TK-10): < 0.01 µM (active)
GI50 (MDA-MB-435): < 0.01 µM (active)
GI50 (SF-295): < 0.01 µM (active)
GI50 (OVCAR-5): < 0.01 µM (active)
GI50 (NCI-H522): < 0.01 µM (active)
GI50 (UO-31): < 0.01 µM (active)
GI50 (UACC-257): < 0.01 µM (active)
GI50 (OVCAR-8): < 0.01 µM (active)
GI50 (HCT-116): < 0.01 µM (active)
GI50 (SNB-19): < 0.01 µM (active)
GI50 (ACHN): < 0.01 µM (active)
GI50 (IGROV-1): < 0.01 µM (active)

C[C@H](C(=O)N1C(=O)O[C@@H](c2ccccc2)[C@H]1C)[C@H](c1ccccc1)N(Cc1ccccc1)OC(=O)c1ccccc1
GI50 (MOLT-4): 22.1 µM (inactive)
GI50 (LOX IMVI): 45.3 µM (inactive)
GI50 (NCI-H226): 38.4 µM (inactive)
GI50 (Malme-3M): > 100 µM (inactive)
GI50 (A549): 32.9 µM (inactive)
GI50 (TK-10): 90.6 µM (inactive)
GI50 (MDA-MB-435): 49.4 µM (inactive)
GI50 (SF-295): 21.6 µM (inactive)
GI50 (OVCAR-5): 68.1 µM (inactive)
GI50 (NCI-H522): 29.1 µM (inactive)
GI50 (UO-31): 34.8 µM (inactive)
GI50 (UACC-257): 20.9 µM (inactive)
GI50 (OVCAR-8): 37.5 µM (inactive)
GI50 (HCT-116): 34.1 µM (inactive)
GI50 (SNB-19): 35 µM (inactive)
GI50 (ACHN): 31.8 µM (inactive)
GI50 (IGROV-1): 29.2 µM (inactive)
GI50 (UACC-62): 28.6 µM (inactive)

Cc1cc([N+](=O)[O-])ccc1Nc1cccc(Cl)c1C
GI50 (MOLT-4): 14.8 µM (inactive)
GI50 (LOX IMVI): 17.3 µM (inactive)
GI50 (NCI-H226): 18.9 µM (inactive)
GI50 (Malme-3M): 15.2 µM (inactive)
GI50 (A549): 16.6 µM (inactive)
GI50 (TK-10): 14.8 µM (inactive)
GI50 (SF-295): 18.9 µM (inactive)
GI50 (OVCAR-5): 14.7 µM (inactive)
GI50 (NCI-H522): 16.1 µM (inactive)
GI50 (UO-31): 11.7 µM (inactive)
GI50 (UACC-257): 18 µM (inactive)
GI50 (OVCAR-8): 15.1 µM (inactive)
GI50 (HCT-116): 16.1 µM (inactive)
GI50 (SR): 14.7 µM (inactive)
GI50 (SNB-19): 19.1 µM (inactive)
GI50 (ACHN): 17.8 µM (inactive)
GI50 (IGROV-1): 13.6 µM (inactive)
GI50 (OVCAR-3): 13.7 µM (inactive)
GI50 (UACC-62): 12.6 µM (inactive)

CCOC(=O)c1ccc(-c2onc(C)c2Br)[nH]1
GI50 (MOLT-4): > 100 µM (inactive)
GI50 (Malme-3M): 79.6 µM (inactive)
GI50 (A549): 33 µM (inactive)
GI50 (TK-10): 56.9 µM (inactive)
GI50 (MDA-MB-435): 85.1 µM (inactive)
GI50 (SF-295): 39.5 µM (inactive)
GI50 (OVCAR-5): > 100 µM (inactive)
GI50 (NCI-H522): 51.9 µM (inactive)
GI50 (UO-31): 32.7 µM (inactive)
GI50 (UACC-257): 47.2 µM (inactive)
GI50 (OVCAR-8): 37.4 µM (inactive)
GI50 (HCT-116): 30.1 µM (inactive)
GI50 (SNB-19): 66.1 µM (inactive)
GI50 (ACHN): 37.6 µM (inactive)
GI50 (IGROV-1): 22.7 µM (inactive)
GI50 (OVCAR-3): 30.4 µM (inactive)
GI50 (UACC-62): 56 µM (inactive)
